No end group written: not given here.
Columns and labels:
Assay in all cases: biochemical
Format in all cases: binding
HLA-DR DRB1*0901 (DR9) = HLA-DR DRB1*0901 (DR9) (Homo sapiens, UniProt P01903+P01911, A100R/A103E/D57H/D86V/F55Y/F60I/F76Y/I96F/K127E/L162R/M171V/P40D/Q125H/Q99R/R33Q/R42F/S133A/S66N/T210M/V115G/W38K/Y107V/Y59G/Y89S); conditions: DRB1 *0901
HLA-DR DRB4*0101 (DR53) = HLA-DR DRB4*0101 (DR53) (Homo sapiens, UniProt P01903+P13762, G164S); conditions: DRB4 *0101
HLA-DR DRB1*1101 (DR11) = HLA-DR DRB1*1101 (DR11) (Homo sapiens, UniProt P01903+P01911, A100R/A169T/A87E/I96F/K41T/L162R/M171V/P40S/Q125H/Q178H/Q39Y/Q99D/R42S/S66Y/T262R/V115G/W38E); conditions: DRB1 *1101
Sequence of HLA-DR DRB1*1101 (DR11) (P01903 26-254 limits assumed, other chains not shown): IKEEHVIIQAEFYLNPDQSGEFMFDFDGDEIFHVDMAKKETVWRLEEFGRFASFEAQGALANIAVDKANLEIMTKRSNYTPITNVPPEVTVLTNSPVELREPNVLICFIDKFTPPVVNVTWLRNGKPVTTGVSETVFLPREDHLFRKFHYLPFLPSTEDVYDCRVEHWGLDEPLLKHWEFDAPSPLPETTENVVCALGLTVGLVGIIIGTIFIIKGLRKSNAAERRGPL

HLA-DR DRB1*1302 (DR13) = HLA-DR DRB1*1302 (DR13) (Homo sapiens, UniProt P01903+P01911, A100E/A169T/K41T/L162R/M171V/P40S/Q125H/Q178H/Q39Y/Q99D/R42S/S66N/T262R/V115G/W38E/Y61H); conditions: DRBI *1302
Sequence of HLA-DR DRB1*1302 (DR13) (P01903 26-254 limits assumed, other chains not shown): as above

HLA-DR DRB1*1501 (DR15) = HLA-DR DRB1*1501 (DR15) (Homo sapiens, UniProt P01903+P01911); conditions: DRBI *1501
HLA-DR DRB1*0802 (DR8) = HLA-DR DRB1*0802 (DR8) (Homo sapiens, UniProt P01903+P01911, A100R/A103L/A169T/F76Y/H45Y/I96F/K41T/L162R/M171V/P40S/Q125H/Q178H/Q39Y/Q99D/R218S/R42G/S66Y/V115G/W38E)
HLA-DR DRB5*0101 (DR51) = HLA-DR DRB5*0101 (DR51) (Homo sapiens, UniProt P01903+Q30154); conditions: DRB5 *0101
HLA-DR DRB1*0101 (DR1) = HLA-DR DRB1*0101 (DR1) (Homo sapiens, UniProt P01903+P01911, A100R/D57E/F55L/F60I/F76Y/I96L/L162R/M171V/P40L/Q125E/R42F/V115G/Y59C); conditions: DRB1 *0101
HLA-DR DRB1*0301 (DR3) = HLA-DR DRB1*0301 (DR3) (Homo sapiens, UniProt P01903+P01911, A100K/A102G/A103R/A169T/F55Y/I96L/K41T/L162R/M171V/P40S/Q125H/Q178H/Q39Y/R42S/S66N/T106N/T262R/W38E/Y61H)
Sequence of HLA-DR DRB1*0301 (DR3) (P01903 26-254 limits assumed, other chains not shown): as above

HLA-DR DRB1*0701 (DR7) = HLA-DR DRB1*0701 (DR7) (Homo sapiens, UniProt P01903+P01911, A100R/A102G/A103Q/D57E/D86V/E43K/F76Y/K127E/L162R/M171V/P40G/Q125H/Q99D/R33Q/R42Y/R54Q/S133A/S66F/T210M/V115G/Y107V/Y59L/Y89S); conditions: DRB1 *0701
HLA-DR DRB3*0101 (DR52) = HLA-DR DRB3*0101 (DR52) (Homo sapiens, UniProt P01903+P79483)
HLA-DR DRB1*0401 (DR4) = HLA-DR DRB1*0401 (DR4) (Homo sapiens, UniProt P01903+P01911, A100K/A169T/F76Y/I96L/K127E/L162R/M171V/N62H/P40V/Q125Y/R42H/S133A/S149N/S66Y/V115G/V209L/W38E); conditions: DRB1 *0401

| Compound | IC50 (HLA-DR DRB1*0901 (DR9)) | IC50 (HLA-DR DRB4*0101 (DR53)) | IC50 (HLA-DR DRB1*1101 (DR11)) | IC50 (HLA-DR DRB1*1302 (DR13)) | IC50 (HLA-DR DRB1*1501 (DR15)) | IC50 (HLA-DR DRB1*0802 (DR8)) | IC50 (HLA-DR DRB5*0101 (DR51)) | IC50 (HLA-DR DRB1*0101 (DR1)) | IC50 (HLA-DR DRB1*0301 (DR3)) | IC50 (HLA-DR DRB1*0701 (DR7)) | IC50 (HLA-DR DRB3*0101 (DR52)) | IC50 (HLA-DR DRB1*0401 (DR4)) |
| --- | --- | --- | --- | --- | --- | --- | --- | --- | --- | --- | --- | --- |
| CC(C)C[C@H](NC(=O)[C@H](CO)NC(=O)[C@H](CC(C)C)NC(=O)[C@H](CO)NC(=O)[C@H](C)NC(=O)[C@H](C)NC(=O)[C@H](CCCNC(=N)N)NC(=O)[C@H](C)NC(=O)[C@H](CC(C)C)NC(=O)[C@H](CC(C)C)NC(=O)[C@H](CC(C)C)NC(=O)[C@@H]1CCCN1C(=O)[C@H](C)NC(=O)[C@H](C)N)C(=O)NCC(=O)O | 64 nM | 79 nM | 100 nM | 3.2 nM | 35 nM | 30 nM | 79 nM | 6.8 nM | 35400 nM | 160 nM | 10500 nM | – |
| CC[C@H](C)[C@H](NC(=O)[C@H](CS)NC(=O)[C@H](Cc1c[nH]cn1)NC(=O)[C@H](C)N)C(=O)N[C@@H](CCCNC(=N)N)C(=O)N[C@@H](CC(N)=O)C(=O)N[C@@H](CCCCN)C(=O)N[C@@H](CO)C(=O)N[C@H](C(=O)N[C@H](C(=O)N[C@@H](CC(C)C)C(=O)N[C@@H](CC(C)C)C(=O)NCC(=O)N[C@@H](CCCNC(=N)N)C(=O)N[C@@H](Cc1c[nH]cn1)C(=O)O)[C@@H](C)CC)C(C)C | 715 nM | 8.7 nM | 93 nM | 75 nM | 88 nM | 104 nM | 3630 nM | 578 nM | 29700 nM | 2570 nM | 4750 nM | 69 nM |
| CSCC[C@H](NC(=O)[C@H](CC(C)C)NC(=O)[C@@H]1CCCN1C(=O)[C@@H](NC(=O)[C@@H](N)CS)[C@@H](C)O)C(=O)N[C@@H](Cc1ccc(O)cc1)C(=O)N[C@@H](CO)C(=O)N[C@@H](CC(C)C)C(=O)N[C@H](C(=O)N[C@@H](Cc1c[nH]cn1)C(=O)N[C@@H](CC(N)=O)C(=O)N[C@@H](CC(C)C)C(=O)N[C@H](C(=O)N[C@@H](CCCCN)C(=O)N[C@@H](CCC(=O)O)C(=O)O)[C@@H](C)O)C(C)C | 249 nM | 58 nM | 590 nM | 260 nM | 426 nM | 223 nM | 36 nM | 93 nM | 19400 nM | 140 nM | 18300 nM | – |
| CSCC[C@H](NC(=O)[C@H](CC(C)C)NC(=O)[C@H](CC(=O)O)NC(=O)[C@@H](N)Cc1c[nH]cn1)C(=O)N[C@@H](CC(C)C)C(=O)N[C@@H](CC(C)C)C(=O)N[C@@H](CCCNC(=N)N)C(=O)N[C@@H](CC(C)C)C(=O)N[C@@H](CO)C(=O)N[C@@H](CCC(=O)O)C(=O)N1CCC[C@H]1C(=O)N[C@@H](C)C(=O)N[C@@H](CCC(=O)O)C(=O)N[C@@H](CC(C)C)C(=O)N[C@H](C(=O)O)[C@@H](C)O | 22 nM | 45 nM | 2140 nM | 2.3 nM | 662 nM | 3910 nM | 10500 nM | 62 nM | 2870 nM | 152 nM | 5310 nM | 6190 nM |
| CC[C@H](C)[C@H](N)C(=O)N[C@@H](CCCCN)C(=O)N[C@@H](CCCCN)C(=O)N[C@@H](Cc1ccccc1)C(=O)N[C@@H](CC(C)C)C(=O)N[C@@H](Cc1ccc(O)cc1)C(=O)N[C@@H](CC(N)=O)C(=O)N[C@@H](Cc1ccccc1)C(=O)N[C@H](C(=O)N[C@@H](CCC(N)=O)C(=O)N[C@H](C(=O)N1CCC[C@H]1C(=O)N[C@@H](Cc1c[nH]cn1)C(=O)N[C@@H](CC(C)C)C(=O)N[C@@H](C)C(=O)O)[C@@H](C)CC)[C@@H](C)O | 160 nM | 96 nM | 137 nM | 27 nM | 305 nM | 512 nM | – | 449 nM | 8080 nM | 29 nM | 477 nM | 43 nM |
| CC[C@H](C)[C@H](NC(=O)[C@@H]1CCCN1C(=O)[C@@H](N)CC(N)=O)C(=O)N[C@@H](CC(C)C)C(=O)N[C@@H](CC(C)C)C(=O)N[C@@H](Cc1c[nH]c2ccccc12)C(=O)N[C@@H](CCC(N)=O)C(=O)N1CCC[C@H]1C(=O)N[C@H](C(=O)N1CCC[C@H]1C(=O)N[C@H](C(=O)N[C@@H](Cc1c[nH]cn1)C(=O)N[C@H](C(=O)N[C@H](C(=O)N1CCC[C@H]1C(=O)O)C(C)C)[C@@H](C)O)C(C)C)[C@@H](C)CC | 575 nM | 67 nM | 599 nM | 250 nM | 4.6 nM | 13000 nM | 25000 nM | 31 nM | > 81800 nM | 41 nM | > 8830 nM | 206 nM |
| CC[C@H](C)[C@H](NC(=O)[C@H](Cc1c[nH]c2ccccc12)NC(=O)[C@H](CCCCN)NC(=O)[C@H](CCCNC(=N)N)NC(=O)[C@H](Cc1ccc(O)cc1)NC(=O)[C@H](Cc1c[nH]cn1)NC(=O)[C@@H](NC(=O)[C@@H](NC(=O)[C@H](CCCCN)NC(=O)[C@@H](NC(=O)[C@H](Cc1ccc(O)cc1)NC(=O)[C@H](CC(C)C)NC(=O)[C@H](CO)NC(=O)[C@@H]1CCCN1C(=O)[C@@H](N)CCCNC(=N)N)[C@@H](C)O)C(C)C)C(C)C)C(=O)O | 5480 nM | 4900 nM | 350 nM | 4180 nM | 717 nM | 39 nM | 13 nM | 6040 nM | 53800 nM | 652 nM | 2980 nM | 339 nM |
| CC(C)C[C@H](NC(=O)[C@H](CCC(N)=O)NC(=O)[C@H](CC(=O)O)NC(=O)[C@H](CCC(=O)O)NC(=O)[C@H](CO)NC(=O)[C@H](CC(C)C)NC(=O)[C@@H]1CCCN1C(=O)[C@@H](NC(=O)[C@@H](N)[C@@H](C)O)C(C)C)C(=O)N[C@@H](CC(C)C)C(=O)N[C@@H](Cc1ccc(O)cc1)C(=O)N[C@@H](CC(C)C)C(=O)N1CCC[C@H]1C(=O)N[C@@H](Cc1ccccc1)C(=O)N[C@@H](CCCNC(=N)N)C(=O)O | 37400 nM | 872 nM | 26500 nM | 5300 nM | > 2370 nM | 42200 nM | – | 4010 nM | 332 nM | 11300 nM | 4320 nM | – |
| EVFFQRLGIASGRAR | 2980 nM | 51 nM | 31 nM | 17500 nM | 4560 nM | 6.3 nM | 7.9 nM | 28 nM | > 75000 nM | 5310 nM | > 15000 nM | – |
| GVILYSDPADYFAPG | 2470 nM | 64 nM | > 18900 nM | 39 nM | 965 nM | 106000 nM | – | 1570 nM | 17 nM | 7850 nM | 8.8 nM | 7510 nM |
| NGVLQGITSWGSEPC | 819 nM | 4490 nM | 9720 nM | 775 nM | 258 nM | 5870 nM | – | 945 nM | 24900 nM | 485 nM | 8040 nM | 560 nM |
| NSRLLQERGVAYINA | 2620 nM | 699 nM | 12800 nM | 327 nM | 1230 nM | 3220 nM | 3470 nM | 614 nM | 318 nM | 8000 nM | 3370 nM | – |
| YDPLYCESVHNFTLP | 643 nM | 6900 nM | 30200 nM | > 35000 nM | 2140 nM | 30900 nM | 28800 nM | 1600 nM | 16600 nM | 838 nM | > 8830 nM | – |

Reference: patent US20060079453A1, “Hla binding peptides and their uses” (priority 2002, published 2006)
